Experimental data: ChEMBL document CHEMBL4507264, “Data for DCP probe BAY-7598” (2021)

Assays:
[1] = target: Activin receptor type-2B (Homo sapiens) (UniProt Q13705); conditions: Compound concentration 1000.0 nM
[2] = target: Activin receptor type-1-like (Homo sapiens) (UniProt P37023); conditions: Compound concentration 1000.0 nM
[3] = target: Aurora kinase C (Homo sapiens) (UniProt Q9UQB9); conditions: Compound concentration 1000.0 nM
[4] = target: Serine/threonine-protein kinase B-raf (Homo sapiens) (UniProt P15056); conditions: Compound concentration 1000.0 nM
[5] = target: Calcium/calmodulin-dependent protein kinase kinase 2 (Homo sapiens) (UniProt Q96RR4); conditions: Compound concentration 1000.0 nM
[6] = target: Cyclin-dependent kinase 2 (Homo sapiens) (UniProt P24941); conditions: Compound concentration 1000.0 nM
[7] = target: Serine/threonine-protein kinase Chk1 (Homo sapiens) (UniProt O14757); conditions: Compound concentration 1000.0 nM
Chain of Serine/threonine-protein kinase Chk1 (Homo sapiens) (O14757 whole entry): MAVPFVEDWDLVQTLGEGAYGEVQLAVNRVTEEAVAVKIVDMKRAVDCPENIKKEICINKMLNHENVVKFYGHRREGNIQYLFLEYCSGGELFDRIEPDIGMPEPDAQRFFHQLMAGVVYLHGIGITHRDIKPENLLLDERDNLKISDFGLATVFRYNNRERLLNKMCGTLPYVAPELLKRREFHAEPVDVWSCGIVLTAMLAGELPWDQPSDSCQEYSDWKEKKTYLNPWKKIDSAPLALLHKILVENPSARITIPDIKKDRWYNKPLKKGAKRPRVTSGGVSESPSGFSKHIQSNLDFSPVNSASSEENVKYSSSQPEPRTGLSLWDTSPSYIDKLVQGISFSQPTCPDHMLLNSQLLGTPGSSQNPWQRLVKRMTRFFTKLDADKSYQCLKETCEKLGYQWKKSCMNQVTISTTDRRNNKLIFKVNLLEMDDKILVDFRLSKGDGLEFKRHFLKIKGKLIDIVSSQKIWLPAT

[8] = target: Macrophage colony-stimulating factor 1 receptor (Homo sapiens) (UniProt P07333); conditions: Compound concentration 1000.0 nM
[9] = target: Casein kinase I isoform epsilon (Homo sapiens) (UniProt P49674); conditions: Compound concentration 1000.0 nM
[10] = target: Myotonin-protein kinase (Homo sapiens) (UniProt Q09013); conditions: Compound concentration 1000.0 nM
[11] = target: Dual specificity tyrosine-phosphorylation-regulated kinase 1A (Homo sapiens) (UniProt Q13627); conditions: Compound concentration 1000.0 nM
[12] = target: Ephrin type-A receptor 2 (Homo sapiens) (UniProt P29317); conditions: Compound concentration 1000.0 nM
[13] = target: Fibroblast growth factor receptor 4 (Homo sapiens) (UniProt P22455); conditions: Compound concentration 1000.0 nM
Chain of Fibroblast growth factor receptor 4 (Homo sapiens) (P22455 22-802 limits assumed): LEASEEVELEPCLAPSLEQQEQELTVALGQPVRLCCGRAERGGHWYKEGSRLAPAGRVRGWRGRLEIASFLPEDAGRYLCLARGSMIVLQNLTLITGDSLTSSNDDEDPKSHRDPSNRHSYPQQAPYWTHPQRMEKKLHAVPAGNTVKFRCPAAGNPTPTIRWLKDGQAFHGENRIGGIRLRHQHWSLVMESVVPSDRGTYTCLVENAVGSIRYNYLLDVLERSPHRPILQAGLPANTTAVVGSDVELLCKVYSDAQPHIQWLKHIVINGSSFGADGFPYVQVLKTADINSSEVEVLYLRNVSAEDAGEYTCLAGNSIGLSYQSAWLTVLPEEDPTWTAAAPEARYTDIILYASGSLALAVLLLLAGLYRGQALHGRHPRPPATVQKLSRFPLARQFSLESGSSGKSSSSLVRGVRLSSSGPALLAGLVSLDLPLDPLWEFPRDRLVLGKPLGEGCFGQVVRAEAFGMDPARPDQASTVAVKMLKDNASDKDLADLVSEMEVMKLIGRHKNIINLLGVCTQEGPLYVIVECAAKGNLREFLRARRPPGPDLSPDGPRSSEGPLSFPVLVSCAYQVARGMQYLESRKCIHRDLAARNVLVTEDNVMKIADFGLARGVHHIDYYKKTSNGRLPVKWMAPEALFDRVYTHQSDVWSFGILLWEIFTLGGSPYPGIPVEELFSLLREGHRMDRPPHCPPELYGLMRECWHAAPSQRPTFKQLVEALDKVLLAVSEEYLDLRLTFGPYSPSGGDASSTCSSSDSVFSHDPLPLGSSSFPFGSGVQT

[14] = target: Rhodopsin kinase GRK7 (Homo sapiens) (UniProt Q8WTQ7); conditions: Compound concentration 1000.0 nM
[15] = target: Homeodomain-interacting protein kinase 1 (Homo sapiens) (UniProt Q86Z02); conditions: Compound concentration 1000.0 nM
[16] = target: Mitogen-activated protein kinase 10 (Homo sapiens) (UniProt P53779); conditions: Compound concentration 1000.0 nM
[17] = target: Leukocyte tyrosine kinase receptor (Homo sapiens) (UniProt P29376); conditions: Compound concentration 1000.0 nM
[18] = target: Serine/threonine-protein kinase MAK (Homo sapiens) (UniProt P20794); conditions: Compound concentration 1000.0 nM
[19] = target: Mitogen-activated protein kinase kinase kinase kinase 4 (Homo sapiens) (UniProt O95819); conditions: Compound concentration 1000.0 nM
[20] = target: Serine/threonine-protein kinase MARK2 (Homo sapiens) (UniProt Q7KZI7); conditions: Compound concentration 1000.0 nM
[21] = target: Dual specificity mitogen-activated protein kinase kinase 7 (Homo sapiens) (UniProt O14733); conditions: Compound concentration 1000.0 nM
Chain of Dual specificity mitogen-activated protein kinase kinase 7 (Homo sapiens) (O14733 whole entry): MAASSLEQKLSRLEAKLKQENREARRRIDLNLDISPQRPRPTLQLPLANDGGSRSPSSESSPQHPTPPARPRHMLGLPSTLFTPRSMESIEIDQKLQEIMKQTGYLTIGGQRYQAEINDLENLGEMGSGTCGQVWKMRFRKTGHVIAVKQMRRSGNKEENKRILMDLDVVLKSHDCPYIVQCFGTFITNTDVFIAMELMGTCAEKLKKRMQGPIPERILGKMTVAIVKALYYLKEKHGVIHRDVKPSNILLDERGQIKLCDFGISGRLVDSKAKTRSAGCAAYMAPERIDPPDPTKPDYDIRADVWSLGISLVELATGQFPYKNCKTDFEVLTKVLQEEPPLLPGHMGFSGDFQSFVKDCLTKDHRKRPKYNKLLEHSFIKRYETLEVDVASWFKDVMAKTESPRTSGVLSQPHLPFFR

[22] = target: Serine/threonine-protein kinase 38 (Homo sapiens) (UniProt Q15208); conditions: Compound concentration 1000.0 nM
[23] = target: Serine/threonine-protein kinase Nek4 (Homo sapiens) (UniProt P51957); conditions: Compound concentration 1000.0 nM
[24] = target: Calcium-dependent protein kinase 1 (Plasmodium falciparum) (UniProt P62344); conditions: Compound concentration 1000.0 nM
[25] = target: Phosphatidylinositol 4,5-bisphosphate 3-kinase catalytic subunit beta isoform (Homo sapiens) (UniProt P42338); conditions: Compound concentration 1000.0 nM
Chain of Phosphatidylinositol 4,5-bisphosphate 3-kinase catalytic subunit beta isoform (Homo sapiens) (P42338 whole entry, looked up, canonical isoform): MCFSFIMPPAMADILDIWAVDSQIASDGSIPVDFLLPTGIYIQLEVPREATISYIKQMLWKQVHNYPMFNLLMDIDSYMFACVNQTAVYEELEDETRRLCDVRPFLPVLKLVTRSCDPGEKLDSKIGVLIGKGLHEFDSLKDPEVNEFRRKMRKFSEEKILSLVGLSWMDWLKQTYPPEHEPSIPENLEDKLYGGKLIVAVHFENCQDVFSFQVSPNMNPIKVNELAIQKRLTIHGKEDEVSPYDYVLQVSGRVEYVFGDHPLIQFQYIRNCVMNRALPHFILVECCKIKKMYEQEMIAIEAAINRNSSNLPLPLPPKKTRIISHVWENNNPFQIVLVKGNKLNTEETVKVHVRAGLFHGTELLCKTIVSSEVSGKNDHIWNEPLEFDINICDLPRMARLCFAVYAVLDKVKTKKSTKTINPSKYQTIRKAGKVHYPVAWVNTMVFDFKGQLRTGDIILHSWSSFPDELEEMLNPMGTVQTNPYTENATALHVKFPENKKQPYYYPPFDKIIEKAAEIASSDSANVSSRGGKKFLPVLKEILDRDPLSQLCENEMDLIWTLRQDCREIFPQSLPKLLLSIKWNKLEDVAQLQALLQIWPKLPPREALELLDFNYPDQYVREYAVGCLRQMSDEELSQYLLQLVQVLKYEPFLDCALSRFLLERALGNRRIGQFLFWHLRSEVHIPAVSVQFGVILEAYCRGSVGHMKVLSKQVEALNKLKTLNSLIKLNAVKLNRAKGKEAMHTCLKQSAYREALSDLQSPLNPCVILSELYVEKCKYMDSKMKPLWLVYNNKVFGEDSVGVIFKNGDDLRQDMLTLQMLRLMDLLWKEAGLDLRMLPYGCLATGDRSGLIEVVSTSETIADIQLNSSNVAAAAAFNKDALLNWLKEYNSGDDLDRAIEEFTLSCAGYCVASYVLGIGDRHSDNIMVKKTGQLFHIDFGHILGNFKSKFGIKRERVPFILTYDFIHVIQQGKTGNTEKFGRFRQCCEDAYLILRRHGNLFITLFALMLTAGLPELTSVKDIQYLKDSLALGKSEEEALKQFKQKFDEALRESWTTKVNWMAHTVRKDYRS

[26] = target: Phosphatidylinositol 4,5-bisphosphate 3-kinase catalytic subunit gamma isoform (Homo sapiens) (UniProt P48736); conditions: Compound concentration 1000.0 nM
[27] = target: Serine/threonine-protein kinase N1 (Homo sapiens) (UniProt Q16512); conditions: Compound concentration 1000.0 nM
[28] = target: Rho-associated protein kinase 2 (Homo sapiens) (UniProt O75116); conditions: Compound concentration 1000.0 nM
[29] = target: Tyrosine-protein kinase Srms (Homo sapiens) (UniProt Q9H3Y6); conditions: Compound concentration 1000.0 nM
[30] = target: Serine/threonine-protein kinase 33 (Homo sapiens) (UniProt Q9BYT3); conditions: Compound concentration 1000.0 nM
[31] = target: Tyrosine-protein kinase SYK (Homo sapiens) (UniProt P43405); conditions: Compound concentration 1000.0 nM
[32] = target: TGF-beta receptor type-1 (Homo sapiens) (UniProt P36897); conditions: Compound concentration 1000.0 nM
[33] = target: BDNF/NT-3 growth factors receptor (Homo sapiens) (UniProt Q16620); conditions: Compound concentration 1000.0 nM
[34] = target: Non-receptor tyrosine-protein kinase TYK2 (Homo sapiens) (UniProt P29597); conditions: Compound concentration 1000.0 nM
[35] = target: Serine/threonine-protein kinase WNK1 (Homo sapiens) (UniProt Q9H4A3); conditions: Compound concentration 1000.0 nM
Chain of Serine/threonine-protein kinase WNK1 (Homo sapiens) (Q9H4A3 whole entry, looked up): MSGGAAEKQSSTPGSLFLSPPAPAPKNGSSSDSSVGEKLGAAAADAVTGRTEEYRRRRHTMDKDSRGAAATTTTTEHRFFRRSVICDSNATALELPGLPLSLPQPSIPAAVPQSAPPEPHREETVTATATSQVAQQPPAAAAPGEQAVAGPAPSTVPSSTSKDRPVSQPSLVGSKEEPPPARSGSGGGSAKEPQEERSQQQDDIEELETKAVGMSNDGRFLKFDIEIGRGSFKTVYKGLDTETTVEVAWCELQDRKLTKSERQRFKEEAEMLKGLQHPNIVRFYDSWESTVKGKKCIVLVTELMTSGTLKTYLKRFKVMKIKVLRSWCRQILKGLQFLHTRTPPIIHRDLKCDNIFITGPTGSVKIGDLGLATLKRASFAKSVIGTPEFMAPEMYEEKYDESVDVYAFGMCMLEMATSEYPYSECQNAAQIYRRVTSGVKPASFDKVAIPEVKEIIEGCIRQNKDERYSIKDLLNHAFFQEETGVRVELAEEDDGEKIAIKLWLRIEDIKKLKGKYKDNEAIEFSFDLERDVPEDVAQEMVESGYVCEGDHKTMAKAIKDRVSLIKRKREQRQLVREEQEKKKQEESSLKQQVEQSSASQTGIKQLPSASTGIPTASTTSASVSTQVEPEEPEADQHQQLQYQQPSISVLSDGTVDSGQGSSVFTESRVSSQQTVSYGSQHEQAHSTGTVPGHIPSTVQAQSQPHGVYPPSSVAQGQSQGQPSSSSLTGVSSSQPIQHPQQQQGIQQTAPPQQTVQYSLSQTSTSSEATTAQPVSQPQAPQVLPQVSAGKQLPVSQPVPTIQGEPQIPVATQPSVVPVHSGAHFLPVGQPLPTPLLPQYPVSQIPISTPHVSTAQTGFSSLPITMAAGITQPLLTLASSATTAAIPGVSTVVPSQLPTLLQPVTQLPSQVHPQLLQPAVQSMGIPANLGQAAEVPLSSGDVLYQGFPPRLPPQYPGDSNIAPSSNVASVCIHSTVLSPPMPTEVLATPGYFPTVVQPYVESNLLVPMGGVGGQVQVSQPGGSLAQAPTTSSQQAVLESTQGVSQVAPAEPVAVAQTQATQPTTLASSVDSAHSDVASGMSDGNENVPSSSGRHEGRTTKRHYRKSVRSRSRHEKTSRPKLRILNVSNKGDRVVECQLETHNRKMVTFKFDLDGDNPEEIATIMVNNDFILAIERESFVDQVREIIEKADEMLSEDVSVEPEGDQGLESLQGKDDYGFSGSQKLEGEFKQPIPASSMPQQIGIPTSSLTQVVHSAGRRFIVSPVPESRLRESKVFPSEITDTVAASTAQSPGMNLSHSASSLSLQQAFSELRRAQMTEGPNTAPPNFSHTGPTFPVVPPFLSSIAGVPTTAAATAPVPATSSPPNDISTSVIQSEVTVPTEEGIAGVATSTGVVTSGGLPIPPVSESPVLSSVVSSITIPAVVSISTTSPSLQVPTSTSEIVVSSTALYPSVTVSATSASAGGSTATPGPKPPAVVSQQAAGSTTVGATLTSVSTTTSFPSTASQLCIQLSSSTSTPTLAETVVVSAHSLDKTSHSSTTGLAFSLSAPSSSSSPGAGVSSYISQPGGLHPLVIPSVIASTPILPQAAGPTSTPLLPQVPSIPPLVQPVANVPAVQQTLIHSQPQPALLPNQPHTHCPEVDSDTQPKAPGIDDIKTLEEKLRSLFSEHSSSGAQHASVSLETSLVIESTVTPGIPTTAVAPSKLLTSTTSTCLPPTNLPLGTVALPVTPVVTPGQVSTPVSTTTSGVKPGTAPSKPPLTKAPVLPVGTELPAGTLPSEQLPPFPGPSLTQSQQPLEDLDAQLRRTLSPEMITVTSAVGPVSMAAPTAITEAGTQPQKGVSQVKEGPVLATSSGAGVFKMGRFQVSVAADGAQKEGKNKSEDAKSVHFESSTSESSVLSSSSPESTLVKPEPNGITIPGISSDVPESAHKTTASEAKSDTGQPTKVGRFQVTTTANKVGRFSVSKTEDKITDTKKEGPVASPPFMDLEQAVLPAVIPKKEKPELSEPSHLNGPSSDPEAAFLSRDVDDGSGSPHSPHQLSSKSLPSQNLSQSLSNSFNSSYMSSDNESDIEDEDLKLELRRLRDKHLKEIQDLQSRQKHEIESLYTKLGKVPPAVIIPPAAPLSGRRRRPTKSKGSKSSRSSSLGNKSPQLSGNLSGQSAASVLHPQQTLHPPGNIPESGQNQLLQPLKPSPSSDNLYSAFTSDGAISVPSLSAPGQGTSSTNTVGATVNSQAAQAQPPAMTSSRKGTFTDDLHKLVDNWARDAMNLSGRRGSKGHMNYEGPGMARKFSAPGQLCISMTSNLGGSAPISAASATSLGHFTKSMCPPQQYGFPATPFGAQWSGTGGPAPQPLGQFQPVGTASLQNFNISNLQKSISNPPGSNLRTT

[36] = target: Serine/threonine-protein kinase 32A (Homo sapiens) (UniProt Q8WU08); conditions: Compound concentration 1000.0 nM
[37] = target: 5-hydroxytryptamine receptor 6 (Homo sapiens) (UniProt P50406); conditions: Compound concentration 10.0 uM
[38] = target: T1, Muscarinic acetylcholine receptor M1 (Homo sapiens) (UniProt P11229); conditions: Compound concentration 10.0 uM
T1 sequence (whole entry): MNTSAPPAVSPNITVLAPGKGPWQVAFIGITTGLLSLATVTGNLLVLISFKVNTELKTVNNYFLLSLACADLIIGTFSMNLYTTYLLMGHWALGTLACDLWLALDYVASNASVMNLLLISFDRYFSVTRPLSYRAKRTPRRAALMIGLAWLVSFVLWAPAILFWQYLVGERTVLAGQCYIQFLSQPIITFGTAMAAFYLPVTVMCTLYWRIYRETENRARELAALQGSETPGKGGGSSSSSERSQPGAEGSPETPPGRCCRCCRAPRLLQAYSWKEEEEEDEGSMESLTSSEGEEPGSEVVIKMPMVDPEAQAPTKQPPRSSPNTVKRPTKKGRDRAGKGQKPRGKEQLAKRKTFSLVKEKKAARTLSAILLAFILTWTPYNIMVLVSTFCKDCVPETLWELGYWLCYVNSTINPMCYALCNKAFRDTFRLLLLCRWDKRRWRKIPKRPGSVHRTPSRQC

Rattus norvegicus = species: Rattus norvegicus; conditions: Compound concentration 10.0 uM
[39] = target: Sigma intracellular receptor 2 (Homo sapiens) (UniProt Q5BJF2); conditions: Compound concentration 10.0 uM

| Compound | residual activity [1] | residual activity [2] | residual activity [3] | residual activity [4] | residual activity [5] | residual activity [6] | residual activity [7] | residual activity [8] | residual activity [9] | residual activity [10] | residual activity [11] | residual activity [12] | residual activity [13] | residual activity [14] | residual activity [15] | residual activity [16] | residual activity [17] | residual activity [18] | residual activity [19] | residual activity [20] | further results |
| --- | --- | --- | --- | --- | --- | --- | --- | --- | --- | --- | --- | --- | --- | --- | --- | --- | --- | --- | --- | --- | --- |
| O=C(O)[C@@H]1[C@@H](Cn2nnc3ccccc3c2=O)CC[C@H]1C(=O)c1ccc(OCCC2CCOCC2)cc1 [BAY-694] | 100% | 97% | 100% | 100% | 100% | 100% | 100% | 94% | 90% | 100% | 94% | 100% | 99% | 100% | 91% | 100% | 100% | 78% | 93% | 100% | residual activity [21]: 89%; residual activity [22]: 95%; residual activity [23]: 56%; residual activity [24]: 100%; residual activity [25]: 66%; residual activity [26]: 100%; residual activity [27]: 97%; residual activity [28]: 100%; residual activity [29]: 100%; residual activity [30]: 69%; residual activity [31]: 100%; residual activity [32]: 100%; residual activity [33]: 93%; residual activity [34]: 58%; residual activity [35]: 100%; residual activity [36]: 92%; inhibition [37]: 26.9%; inhibition [38]: 6.4%; inhibition (Rattus norvegicus): 13.4%; inhibition [39]: 39.3% |
| O=C(O)[C@H]1[C@H](Cn2nnc3ccccc3c2=O)CC[C@@H]1C(=O)c1ccc(OCCC2CCOCC2)cc1 [BAY-7598] | 79% | 85% | 79% | 100% | 90% | 100% | 100% | 100% | 100% | 83% | 85% | 93% | 100% | 100% | 100% | 83% | 100% | 95% | 91% | 100% | residual activity [21]: 96%; residual activity [22]: 88%; residual activity [23]: 84%; residual activity [24]: 100%; residual activity [25]: 80%; residual activity [26]: 90%; residual activity [27]: 88%; residual activity [28]: 80%; residual activity [29]: 100%; residual activity [30]: 98%; residual activity [31]: 76%; residual activity [32]: 90%; residual activity [33]: 75%; residual activity [34]: 41%; residual activity [35]: 100%; residual activity [36]: 88%; inhibition [37]: 16.6%; inhibition [38]: 18%; inhibition (Rattus norvegicus): 9.67%; inhibition [39]: 28.5% |
